For three compounds, Drug transport results are on record in ChEMBL document CHEMBL4619705, “Conjugation of peptides to short-acyl-chain ceramides for delivery across mucosal cell barriers” (Bioorg Med Chem Lett, 2020).

The nature of the data set: Drug transport in MDCK2 cells assessed as transcytosis across epithelial monolayers at 37 degree C measured after 3 hrs by transwell assay. Format: ADME, cell-based, Canis lupus familiaris. To be noted: dog, mdck-ii.
`CCCCCCCCCCCCC/C=C\[C@@H](O)[C@H](/C=N\OCC(=O)NCCCC[C@@H](NC(=O)CNC(=O)[C@@H](CO)NC(=O)CNC(=O)[C@@H](CCCNC(=N)N)NC(=O)CNC(=O)[C@@H](Cc1ccc(O)cc1)NC(=O)CNC(=O)[C@@H](CO)NC(=O)CNC(=O)[C@@H](CCCCNC(=O)CCCC[C@@H]1SC[C@@H]2NC(=O)N[C@@H]21)NC(=O)[C@H](N)Cc1cn(CCCCCCNC(=O)c2ccc(-c3c4ccc(=N)c(S(=O)(=O)O)c-4oc4c(S(=O)(=O)O)c(N)ccc34)c(C(=O)O)c2)nn1)C(N)=O)NC(=O)CCCCC`: the Drug transport came to 11.4%. The result for `N=C(N)NCCC[C@@H](NC(=O)CNC(=O)[C@@H](Cc1ccc(O)cc1)NC(=O)CNC(=O)[C@@H](CO)NC(=O)CNC(=O)[C@@H](CCCCNC(=O)CCCC[C@@H]1SC[C@@H]2NC(=O)N[C@@H]21)NC(=O)[C@H](N)Cc1cn(CCCCCCNC(=O)c2ccc(-c3c4ccc(=N)c(S(=O)(=O)O)c-4oc4c(S(=O)(=O)O)c(N)ccc34)c(C(=O)O)c2)nn1)C(=O)NCC(=O)N[C@H](CO)C(=O)NCC(=O)N[C@H](CCCCNC(=O)CON)C(N)=O` reads 0.2%. `CCCCCCCCCCCCCC=CC=C(C=NOCC(=O)NCCCC[C@@H](NC(=O)CNC(=O)[C@@H](CO)NC(=O)CNC(=O)[C@@H](CCCNC(=N)N)NC(=O)CNC(=O)[C@@H](Cc1ccc(O)cc1)NC(=O)CNC(=O)[C@@H](CO)NC(=O)CNC(=O)[C@@H](CCCCNC(=O)CCCC[C@@H]1SC[C@@H]2NC(=O)N[C@@H]21)NC(=O)[C@H](N)Cc1cn(CCCCCCNC(=O)c2ccc(-c3c4ccc(=N)c(S(=O)(=O)O)c-4oc4c(S(=O)(=O)O)c(N)ccc34)c(C(=O)O)c2)nn1)C(N)=O)NC(=O)CCCCC`: the Drug transport came out at 5.8%.
